According to US4401660A, “Ester derivatives of 5-O-mycaminosyl tylonolide and method of using same” (Eli Lilly and Company, priority 1981, dated 1983):

Assays:
Mycoplasma gallisepticum = experiment: MIC, broth-dilution microtiter test (Table III); type: cell-based; set-up: unit not given here
Procedure: (§1) The MIC's in Table II were determined by standard agar-dilution assays. The MIC's in Table III were obtained using a conventional broth-dilution microtiter test.

[1] = test system: Pasteurella multocida 40G; experiment: MIC, broth-dilution microtiter test (Table III); type: cell-based; set-up: unit not given here
Procedure: as §1

[2] = test system: Pasteurella multocida 17E; experiment: MIC, broth-dilution microtiter test (Table III); type: cell-based; set-up: unit not given here; conditions: bovine isolate
Procedure: as §1

[3] = test system: Pasteurella multocida 22A; experiment: MIC, broth-dilution microtiter test (Table III); type: cell-based; set-up: unit not given here
Procedure: as §1

[4] = test system: Pasteurella multocida 60A; experiment: MIC, broth-dilution microtiter test (Table III); type: cell-based; set-up: unit not given here; conditions: avian isolate
Procedure: as §1

Mycoplasma hyorhinis = experiment: MIC, broth-dilution microtiter test (Table III); type: cell-based; set-up: unit not given here
Procedure: as §1

[5] = test system: Pasteurella haemolytica 41D; experiment: MIC, broth-dilution microtiter test (Table III); type: cell-based; set-up: unit not given here
Procedure: as §1

[6] = test system: Pasteurella haemolytica 23C; experiment: MIC, broth-dilution microtiter test (Table III); type: cell-based; set-up: unit not given here
Procedure: as §1

Streptococcus sp. 80 = experiment: MIC, broth-dilution microtiter test (Table III); type: cell-based; set-up: unit not given here
Procedure: as §1

[7] = test system: Pasteurella multocida 68C; experiment: MIC, broth-dilution microtiter test (Table III); type: cell-based; set-up: unit not given here
Procedure: as §1

[8] = test system: Pasteurella haemolytica 22C; experiment: MIC, broth-dilution microtiter test (Table III); type: cell-based; set-up: unit not given here
Procedure: as §1

Staphylococcus aureus = experiment: MIC, broth-dilution microtiter test (Table III); type: cell-based; set-up: unit not given here
Procedure: as §1

[9] = test system: Staphylococcus epidermidis EPI2; experiment: MIC, standard agar-dilution assay (Table II); type: cell-based; set-up: unit not given here
Procedure: as §1

[10] = test system: Streptococcus pneumoniae Park I; experiment: MIC, standard agar-dilution assay (Table II); type: cell-based; set-up: unit not given here
Procedure: as §1

[11] = test system: Streptococcus Group D 9960; experiment: MIC, standard agar-dilution assay (Table II); type: cell-based; set-up: unit not given here
Procedure: as §1

[12] = test system: Staphylococcus aureus S13E; experiment: MIC, standard agar-dilution assay (Table II); type: cell-based; set-up: unit not given here
Procedure: as §1

[13] = test system: Haemophilus influenzae R252; experiment: MIC, standard agar-dilution assay (Table II); type: cell-based; set-up: unit not given here; conditions: Haemophilus influenzae R252, ampicillin-resistant strain
Procedure: as §1

[14] = test system: Streptococcus pyogenes C203; experiment: MIC, standard agar-dilution assay (Table II); type: cell-based; set-up: unit not given here
Procedure: as §1

[15] = test system: Staphylococcus aureus V41; experiment: MIC, standard agar-dilution assay (Table II); type: cell-based; set-up: unit not given here; conditions: Staphylococcus aureus V41, penicillin-resistant strain
Procedure: as §1

[16] = test system: Staphylococcus epidermidis EPI1; experiment: MIC, standard agar-dilution assay (Table II); type: cell-based; set-up: unit not given here
Procedure: as §1

[17] = test system: Haemophilus influenzae Holt; experiment: MIC, standard agar-dilution assay (Table II); type: cell-based; set-up: unit not given here; conditions: ampicillin-sensitive strain
Procedure: as §1

[18] = test system: Streptococcus Group D X66; experiment: MIC, standard agar-dilution assay (Table II); type: cell-based; set-up: unit not given here
Procedure: as §1

[19] = test system: Staphylococcus aureus X400; experiment: MIC, standard agar-dilution assay (Table II); type: cell-based; set-up: unit not given here; conditions: Staphylococcus aureus X400, methicillin-resistant strain
Procedure: as §1

[20] = test system: Staphylococcus aureus X1.1; experiment: MIC, standard agar-dilution assay (Table II); type: cell-based; set-up: unit not given here
Procedure: as §1

Pasteurella multocida = experiment: Treatment of Pasteurella infections in chicks (Table V); type: in vivo, one-day-old chicks; conditions: 30 mg/kg by subcutaneous injection one and four hours post challenge
Summary of the method: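 Dosing was 30 mg/kg by subcutaneous injection, one and four hours after challenge. Day-old chicks received 0.1 ml of a 10^-3 dilution of a 20-hour tryptose broth culture of avian P. multocida subcutaneously. Nonmedicated infected chicks served as controls, ten per group.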

CCC1OC(=O)CC(O)C(C)C(OC2OC(C)C(O)C(N(C)C)C2O)C(CC=O)CC(C)C(=O)C=CC(C)=CC1COC(=O)CCc1ccccc1 (centres unmarked) [Compound 54] was tested, and the “minimal inhibitory concentration (MIC)” value (Mycoplasma gallisepticum) was 0.097, the “minimal inhibitory concentration (MIC)” value [1] was 3.12 and the “minimal inhibitory concentration (MIC)” value [2] was 0.78. For the same molecule, the “minimal inhibitory concentration (MIC)” value [3] was 6.25, the “minimal inhibitory concentration (MIC)” value [4] was 1.56 and the “minimal inhibitory concentration (MIC)” value (Mycoplasma hyorhinis) was 0.78. The “minimal inhibitory concentration (MIC)” value [5] was 3.12, the “minimal inhibitory concentration (MIC)” value [6] was 3.12 and the “minimal inhibitory concentration (MIC)” value (Streptococcus sp. 80) was 0.195. For the same molecule, the “minimal inhibitory concentration (MIC)” value [7] was 0.78, the “minimal inhibitory concentration (MIC)” value [8] was 3.12 and the “minimal inhibitory concentration (MIC)” value (Staphylococcus aureus) was 0.195. For the same molecule, the “minimal inhibitory concentration (MIC)” value [9] was 0.25, the “minimal inhibitory concentration (MIC)” value [10] was 0.015 and the “minimal inhibitory concentration (MIC)” value [11] was 0.125. For the same molecule, the “minimal inhibitory concentration (MIC)” value [12] was 0.125, the “minimal inhibitory concentration (MIC)” value [13] was 0.25 and the “minimal inhibitory concentration (MIC)” value [14] was 0.06. For the same molecule, the “minimal inhibitory concentration (MIC)” value [15] was 0.25, the “minimal inhibitory concentration (MIC)” value [16] was 0.125 and the “minimal inhibitory concentration (MIC)” value [17] was 0.25. The “minimal inhibitory concentration (MIC)” value [18] was 0.125, the “minimal inhibitory concentration (MIC)” value [19] was 0.25 and the “minimal inhibitory concentration (MIC)” value [20] was 0.125. The “Deaths in Treated Chicks/Number Treated” value (Pasteurella multocida) was 0/10.

CCC1OC(=O)CC(O)C(C)C(OC2OC(C)C(OC(C)=O)C(N(C)C)C2OC(C)=O)C(CC=O)CC(C)C(=O)C=CC(C)=CC1COC(=O)[C@H](NC(=O)OC(C)(C)C)c1ccccc1 (some centres unmarked) [Compound 39, 2',4'-Di-O-acetyl-23-O-(N-t-BOC-phenylglycyl)-OMT] was tested, and the “minimal inhibitory concentration (MIC)” value (Mycoplasma gallisepticum) was less than 0.05, the “minimal inhibitory concentration (MIC)” value [1] was 6.25 and the “minimal inhibitory concentration (MIC)” value [2] was 6.25. For the same molecule, the “minimal inhibitory concentration (MIC)” value [3] was 25, the “minimal inhibitory concentration (MIC)” value [4] was 12.5 and the “minimal inhibitory concentration (MIC)” value (Mycoplasma hyorhinis) was 1.56. The “minimal inhibitory concentration (MIC)” value [5] was 12.5, the “minimal inhibitory concentration (MIC)” value [6] was 12.5 and the “minimal inhibitory concentration (MIC)” value (Streptococcus sp. 80) was 0.195. The “minimal inhibitory concentration (MIC)” value [7] was 12.5, the “minimal inhibitory concentration (MIC)” value [8] was 12.5 and the “minimal inhibitory concentration (MIC)” value (Staphylococcus aureus) was 1.56. For the same molecule, the “minimal inhibitory concentration (MIC)” value [9] was 1, the “minimal inhibitory concentration (MIC)” value [10] was 0.03 and the “minimal inhibitory concentration (MIC)” value [11] was 0.5. For the same molecule, the “minimal inhibitory concentration (MIC)” value [12] was 0.5, the “minimal inhibitory concentration (MIC)” value [13] was 2 and the “minimal inhibitory concentration (MIC)” value [14] was 0.125. For the same molecule, the “minimal inhibitory concentration (MIC)” value [15] was 1, the “minimal inhibitory concentration (MIC)” value [16] was 0.5 and the “minimal inhibitory concentration (MIC)” value [17] was 2. For the same molecule, the “minimal inhibitory concentration (MIC)” value [18] was 0.5, the “minimal inhibitory concentration (MIC)” value [19] was 1 and the “minimal inhibitory concentration (MIC)” value [20] was 0.5. The mortality at 30 mg/kg (Pasteurella multocida; Pasteurella multocida, sc, 4 h, read-out: Deaths in Treated Chicks/Number Treated (converted)) was 100%.
